In PubChem BioAssay (NCI):
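Five concentrations, 48 hours, 96-well plates. TGI marks complete inhibition of growth.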

Experiments:
Test in all cases: NCI-60 cell line screen, 48 h
786-0 renal = test system: 786-0 renal
A498 renal = test system: A498 renal
A549 NSCLC = test system: A549 NSCLC
ACHN renal = test system: ACHN renal
BT-549 breast = test system: BT-549 breast
CAKI-1 renal = test system: CAKI-1 renal
CCRF-CEM leukemia = test system: CCRF-CEM leukemia
COLO 205 colon = test system: COLO 205 colon
DU-145 prostate = test system: DU-145 prostate
EKVX NSCLC = test system: EKVX NSCLC
HCC-2998 colon = test system: HCC-2998 colon
HCT-116 colon = test system: HCT-116 colon
HCT-15 colon = test system: HCT-15 colon
HOP-62 NSCLC = test system: HOP-62 NSCLC
HOP-92 NSCLC = test system: HOP-92 NSCLC
HS 578T breast = test system: HS 578T breast
HT29 colon = test system: HT29 colon
IGROV1 ovarian = test system: IGROV1 ovarian
KM12 colon = test system: KM12 colon
LOX IMVI melanoma = test system: LOX IMVI melanoma
M14 melanoma = test system: M14 melanoma
MALME-3M melanoma = test system: MALME-3M melanoma
MCF7 breast = test system: MCF7 breast
MDA-MB-231 breast = test system: MDA-MB-231 breast
MDA-MB-435 = test system: MDA-MB-435
MDA-N = test system: MDA-N
MOLT-4 leukemia = test system: MOLT-4 leukemia
NCI-H226 lung = test system: NCI-H226 lung
NCI-H23 lung = test system: NCI-H23 lung
NCI-H460 lung = test system: NCI-H460 lung
NCI-H522 lung = test system: NCI-H522 lung
NCI/ADR-RES ovarian = test system: NCI/ADR-RES ovarian
OVCAR-3 ovarian = test system: OVCAR-3 ovarian
OVCAR-4 ovarian = test system: OVCAR-4 ovarian
OVCAR-5 ovarian = test system: OVCAR-5 ovarian
OVCAR-8 ovarian = test system: OVCAR-8 ovarian
PC-3 prostate = test system: PC-3 prostate
RPMI-8226 leukemia = test system: RPMI-8226 leukemia
RXF 393 renal = test system: RXF 393 renal
SF-268 CNS = test system: SF-268 CNS
SF-295 CNS = test system: SF-295 CNS
SF-539 CNS = test system: SF-539 CNS
SK-MEL-2 melanoma = test system: SK-MEL-2 melanoma
SK-MEL-28 melanoma = test system: SK-MEL-28 melanoma
SK-MEL-5 melanoma = test system: SK-MEL-5 melanoma
SK-OV-3 ovarian = test system: SK-OV-3 ovarian
SN12C renal = test system: SN12C renal
SNB-19 CNS = test system: SNB-19 CNS
SNB-75 CNS = test system: SNB-75 CNS
SR leukemia = test system: SR leukemia
SW-620 colon = test system: SW-620 colon
T-47D breast = test system: T-47D breast
TK-10 renal = test system: TK-10 renal
U251 CNS = test system: U251 CNS
UACC-257 melanoma = test system: UACC-257 melanoma
UACC-62 melanoma = test system: UACC-62 melanoma
UO-31 renal = test system: UO-31 renal
HL-60(TB) leukemia = test system: HL-60(TB) leukemia
K-562 leukemia = test system: K-562 leukemia

Work on COC1CCC(OC2CC(C3(C)CCC4(CC(O)C(C)C(C(C)/C=C(\C)C(=O)C(C)CC(C)C(=O)O)O4)O3)OC3(OC(C4OC(O)(CO)C(C)CC4C)CC3C)C2C)OC1C (configuration not stated) yielded a TGI (786-0 renal) of 1.21 µM, a TGI (A498 renal) of 0.336 µM and a TGI (A549 NSCLC) of 1.97 µM. For the same molecule, the TGI (ACHN renal) was 4.9 µM, the TGI (BT-549 breast) was 1.26 µM and the TGI (CAKI-1 renal) was 2.21 µM. For the same molecule, the TGI (CCRF-CEM leukemia) was 0.509 µM, the TGI (COLO 205 colon) was 0.175 µM and the TGI (DU-145 prostate) was 3.63 µM. The TGI (EKVX NSCLC) was 9.64 µM, the TGI (HCC-2998 colon) was 1.61 µM and the TGI (HCT-116 colon) was 1.66 µM. It also gave a TGI (HCT-15 colon) of 1.95 µM, a TGI (HOP-62 NSCLC) of 2.87 µM and a TGI (HOP-92 NSCLC) of 2.77 µM. It also gave a TGI (HS 578T breast) of 1.15 µM, a TGI (HT29 colon) of 2.19 µM and a TGI (IGROV1 ovarian) of 16.2 µM. The TGI (KM12 colon) was 1.31 µM, the TGI (LOX IMVI melanoma) was 0.941 µM and the TGI (M14 melanoma) was 0.287 µM. It also gave a TGI (MALME-3M melanoma) of 0.103 µM, a TGI (MCF7 breast) of 1.91 µM and a TGI (MDA-MB-231 breast) of 0.517 µM. It also gave a TGI (MDA-MB-435) of 0.564 µM, a TGI (MDA-N) of 0.549 µM and a TGI (MOLT-4 leukemia) of 0.339 µM. It also gave a TGI (NCI-H226 lung) of 3.13 µM, a TGI (NCI-H23 lung) of 1.13 µM and a TGI (NCI-H460 lung) of 1.6 µM. The TGI (NCI-H522 lung) was 0.26 µM, the TGI (NCI/ADR-RES ovarian) was 6.65 µM and the TGI (OVCAR-3 ovarian) was 2.58 µM. The TGI (OVCAR-4 ovarian) was 10.3 µM, the TGI (OVCAR-5 ovarian) was 13.1 µM and the TGI (OVCAR-8 ovarian) was 1.87 µM. The TGI (PC-3 prostate) was 3.14 µM, the TGI (RPMI-8226 leukemia) was less than 0.0386 µM and the TGI (RXF 393 renal) was 0.225 µM. For the same molecule, the TGI (SF-268 CNS) was 2.84 µM, the TGI (SF-295 CNS) was 1.79 µM and the TGI (SF-539 CNS) was 1.17 µM. For the same molecule, the TGI (SK-MEL-2 melanoma) was 0.576 µM, the TGI (SK-MEL-28 melanoma) was 0.189 µM and the TGI (SK-MEL-5 melanoma) was 0.464 µM. For the same molecule, the TGI (SK-OV-3 ovarian) was 10.9 µM, the TGI (SN12C renal) was 1.55 µM and the TGI (SNB-19 CNS) was 0.355 µM. For the same molecule, the TGI (SNB-75 CNS) was 0.568 µM, the TGI (SR leukemia) was less than 0.0134 µM and the TGI (SW-620 colon) was 1.88 µM. For the same molecule, the TGI (T-47D breast) was 1.22 µM, the TGI (TK-10 renal) was 5.79 µM and the TGI (U251 CNS) was 0.817 µM. It also gave a TGI (UACC-257 melanoma) of 1.52 µM, a TGI (UACC-62 melanoma) of 0.298 µM and a TGI (UO-31 renal) of 5.91 µM.
Work on NC(N)=NNC(=O)C(=O)O yielded a TGI (786-0 renal) greater than 100 µM, a TGI (A498 renal) greater than 100 µM and a TGI (A549 NSCLC) greater than 100 µM. For the same molecule, the TGI (ACHN renal) was greater than 100 µM, the TGI (BT-549 breast) was greater than 100 µM and the TGI (CAKI-1 renal) was greater than 100 µM. It also gave a TGI (CCRF-CEM leukemia) greater than 100 µM, a TGI (COLO 205 colon) greater than 100 µM and a TGI (DU-145 prostate) greater than 100 µM. For the same molecule, the TGI (EKVX NSCLC) was greater than 100 µM, the TGI (HCC-2998 colon) was greater than 100 µM and the TGI (HCT-116 colon) was greater than 100 µM. For the same molecule, the TGI (HCT-15 colon) was greater than 100 µM, the TGI (HL-60(TB) leukemia) was greater than 100 µM and the TGI (HOP-62 NSCLC) was greater than 100 µM. For the same molecule, the TGI (HS 578T breast) was greater than 100 µM, the TGI (HT29 colon) was greater than 100 µM and the TGI (IGROV1 ovarian) was greater than 100 µM. It also gave a TGI (K-562 leukemia) greater than 100 µM, a TGI (KM12 colon) greater than 100 µM and a TGI (LOX IMVI melanoma) greater than 100 µM. It also gave a TGI (M14 melanoma) greater than 100 µM, a TGI (MALME-3M melanoma) greater than 100 µM and a TGI (MCF7 breast) greater than 100 µM. For the same molecule, the TGI (MDA-MB-231 breast) was greater than 100 µM, the TGI (MDA-MB-435) was greater than 100 µM and the TGI (MDA-N) was greater than 100 µM. It also gave a TGI (MOLT-4 leukemia) greater than 100 µM, a TGI (NCI-H226 lung) greater than 100 µM and a TGI (NCI-H23 lung) greater than 100 µM. For the same molecule, the TGI (NCI-H460 lung) was greater than 100 µM, the TGI (NCI-H522 lung) was greater than 100 µM and the TGI (NCI/ADR-RES ovarian) was greater than 100 µM. The TGI (OVCAR-3 ovarian) was greater than 100 µM, the TGI (OVCAR-4 ovarian) was greater than 100 µM and the TGI (OVCAR-5 ovarian) was greater than 100 µM. The TGI (OVCAR-8 ovarian) was greater than 100 µM, the TGI (PC-3 prostate) was greater than 100 µM and the TGI (RPMI-8226 leukemia) was greater than 100 µM. The TGI (RXF 393 renal) was greater than 100 µM, the TGI (SF-268 CNS) was greater than 100 µM and the TGI (SF-295 CNS) was greater than 100 µM. It also gave a TGI (SF-539 CNS) greater than 100 µM, a TGI (SK-MEL-2 melanoma) greater than 100 µM and a TGI (SK-MEL-28 melanoma) greater than 100 µM. The TGI (SK-MEL-5 melanoma) was greater than 100 µM, the TGI (SK-OV-3 ovarian) was greater than 100 µM and the TGI (SN12C renal) was greater than 100 µM. The TGI (SNB-19 CNS) was greater than 100 µM, the TGI (SNB-75 CNS) was greater than 100 µM and the TGI (SR leukemia) was greater than 100 µM. It also gave a TGI (SW-620 colon) greater than 100 µM, a TGI (T-47D breast) greater than 100 µM and a TGI (TK-10 renal) greater than 100 µM. For the same molecule, the TGI (U251 CNS) was greater than 100 µM, the TGI (UACC-257 melanoma) was greater than 100 µM and the TGI (UACC-62 melanoma) was greater than 100 µM. It also gave a TGI (UO-31 renal) greater than 100 µM.
With Cc1ccc2c3c1O[C@H]1c4nc5ccccc5cc4C[C@@]4(O)[C@@H](C2)N(CC2CC2)CC[C@]314 the TGI (786-0 renal) was 22.7 µM, the TGI (A498 renal) was 30.7 µM and the TGI (A549 NSCLC) was 26.8 µM. The TGI (ACHN renal) was 23.4 µM, the TGI (BT-549 breast) was 25.5 µM and the TGI (CAKI-1 renal) was 32.7 µM. The TGI (CCRF-CEM leukemia) was 22.3 µM, the TGI (COLO 205 colon) was 19.3 µM and the TGI (DU-145 prostate) was 69 µM. The TGI (EKVX NSCLC) was 37.9 µM, the TGI (HCT-116 colon) was 17.2 µM and the TGI (HCT-15 colon) was 18.2 µM. The TGI (HL-60(TB) leukemia) was 26.1 µM, the TGI (HOP-62 NSCLC) was 31.3 µM and the TGI (HOP-92 NSCLC) was 58.3 µM. The TGI (HS 578T breast) was 24.7 µM, the TGI (HT29 colon) was 16.7 µM and the TGI (IGROV1 ovarian) was greater than 100 µM. It also gave a TGI (K-562 leukemia) of 23 µM, a TGI (KM12 colon) of 35.6 µM and a TGI (LOX IMVI melanoma) of 17 µM. It also gave a TGI (M14 melanoma) of 25.9 µM, a TGI (MALME-3M melanoma) of 28.2 µM and a TGI (MCF7 breast) of 22.3 µM. The TGI (MDA-MB-231 breast) was 23.5 µM, the TGI (MDA-MB-435) was 23.5 µM and the TGI (MDA-N) was 25.4 µM. For the same molecule, the TGI (MOLT-4 leukemia) was 15.5 µM, the TGI (NCI-H226 lung) was 29.5 µM and the TGI (NCI-H23 lung) was 67.7 µM. The TGI (NCI-H460 lung) was 35.8 µM, the TGI (NCI-H522 lung) was 27.5 µM and the TGI (NCI/ADR-RES ovarian) was 23.5 µM. The TGI (OVCAR-3 ovarian) was 25.3 µM, the TGI (OVCAR-4 ovarian) was 46 µM and the TGI (OVCAR-5 ovarian) was 25.8 µM. For the same molecule, the TGI (OVCAR-8 ovarian) was 22.6 µM, the TGI (PC-3 prostate) was 26.5 µM and the TGI (RPMI-8226 leukemia) was 25.4 µM. The TGI (RXF 393 renal) was 21.1 µM, the TGI (SF-268 CNS) was 25.6 µM and the TGI (SF-295 CNS) was 20.8 µM. The TGI (SF-539 CNS) was 19.4 µM, the TGI (SK-MEL-2 melanoma) was 35.5 µM and the TGI (SK-MEL-28 melanoma) was greater than 100 µM. The TGI (SK-MEL-5 melanoma) was 19.2 µM, the TGI (SK-OV-3 ovarian) was 31.3 µM and the TGI (SN12C renal) was greater than 100 µM. For the same molecule, the TGI (SNB-19 CNS) was greater than 100 µM, the TGI (SR leukemia) was 50.9 µM and the TGI (SW-620 colon) was 18.3 µM. For the same molecule, the TGI (T-47D breast) was 32.2 µM, the TGI (TK-10 renal) was 54.6 µM and the TGI (U251 CNS) was 18.7 µM. It also gave a TGI (UACC-257 melanoma) of 41.1 µM, a TGI (UACC-62 melanoma) of 23.5 µM and a TGI (UO-31 renal) of 22.2 µM.
